According to US12162858B2, “Quinoline derivatives as inhibitors of AXL/MER RTK and CSF1R” (QURIENT CO., LTD., priority 2018, dated 2024):

Experiments:
CSF1R (M-NFS-60 cells) = assay: Cell Titer-Glo viability assay using M-NFS-60 cells; format: cell-based; conditions: Mus musculus, read-out: Cellular CSF1R activity by M-NFS-60 viability assay (IC50 activity range)
In short: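 M-NFS-60 cells grown with 62 ng/ml recombinant human M-CSF, seeded at 2×10^5 cells/well and incubated at 37 °C/5% CO2. Compounds given as 3-fold serial dilutions (10 doses); viability read by CellTiter-Glo luminescence, sigmoidal dose-response fit.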

CSF1R = CSF1R (Homo sapiens, UniProt P07333); assay: Cellular CSF1R inhibition ELISA (p-CSF1R, M-CSF-induced) using THP-1 cells; format: cell-based; set-up: THP-1 cells act as a model for human monocytes; endogenous in cells; host or cells: THP-1
Sequence of CSF1R (P07333 20-972): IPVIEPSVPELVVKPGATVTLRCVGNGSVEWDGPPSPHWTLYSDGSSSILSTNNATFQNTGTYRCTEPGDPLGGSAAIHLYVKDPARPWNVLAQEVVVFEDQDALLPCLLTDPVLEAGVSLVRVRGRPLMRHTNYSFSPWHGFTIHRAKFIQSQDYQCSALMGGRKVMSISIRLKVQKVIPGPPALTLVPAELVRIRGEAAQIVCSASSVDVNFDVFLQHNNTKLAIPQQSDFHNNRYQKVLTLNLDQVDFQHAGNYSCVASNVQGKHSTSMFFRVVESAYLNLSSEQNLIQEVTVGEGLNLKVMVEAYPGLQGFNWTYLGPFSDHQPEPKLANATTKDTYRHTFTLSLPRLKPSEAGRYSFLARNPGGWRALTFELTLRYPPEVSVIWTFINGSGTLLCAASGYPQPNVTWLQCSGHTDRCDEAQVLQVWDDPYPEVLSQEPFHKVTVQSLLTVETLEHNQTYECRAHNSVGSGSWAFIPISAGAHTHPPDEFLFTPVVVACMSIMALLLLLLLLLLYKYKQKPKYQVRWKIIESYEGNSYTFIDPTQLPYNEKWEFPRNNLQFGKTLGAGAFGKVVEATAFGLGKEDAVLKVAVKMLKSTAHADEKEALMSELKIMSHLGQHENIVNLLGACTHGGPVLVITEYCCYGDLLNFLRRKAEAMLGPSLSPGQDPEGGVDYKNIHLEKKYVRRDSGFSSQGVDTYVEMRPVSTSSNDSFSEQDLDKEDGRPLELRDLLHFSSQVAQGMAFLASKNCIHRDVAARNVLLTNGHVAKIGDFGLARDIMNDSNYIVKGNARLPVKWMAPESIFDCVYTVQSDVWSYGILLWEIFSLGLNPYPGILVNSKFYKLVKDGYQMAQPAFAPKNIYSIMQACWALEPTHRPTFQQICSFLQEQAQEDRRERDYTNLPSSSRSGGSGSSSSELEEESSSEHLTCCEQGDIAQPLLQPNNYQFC
Text: The normal proto-oncogene c-fms encodes the macrophage growth factor (M-CSF, also known as CSF1) receptor involved in growth, survival, and differentiation along the monocyte-macrophage lineage. THP-1 cells act as a model for human monocytes. It confirms that an increased phosphorylation of CSF1R (p-CSF1R) can be observed, when induced by CSF1R ligand, CSF1.
The THP-1 cells should be maintained from 5×10^5 to 1×10^6 cells/ml in the cell culture flask. After centrifugation, the supernatant is aspirated. The cell pellet is re-suspended with pre-warmed growth medium (RPMI1640, 10% FBS, 0.05 mM 2-Mercaptoethanol) and cells are separated by pipetting 6 times up and down with a 10 ml serological pipette. The cell suspension has to be diluted to a final concentration of 2×10^5 cells per 80 μl with pre-warmed growth medium. 80 μl of cell suspension is added to all wells of plates. Cell-plates are incubated at 37° C./5% CO2. Dissolve compound in 100% DMSO to make 10 mM stock solutions (Aliquots stored in the Nitrogen Cabinet). Dilute 10 mM compounds solutions for 2-fold in 100% DMSO to get 5 mM solutions (10 μl+10 μl DMSO), and then make a 3-fold serial dilution (10 μl+20 μl DMSO) for 10 doses. For reference compounds: Dilute 10 mM compounds solutions for 20-fold in 100% DMSO to get 0.5 mM solutions (2 μl+38 μl DMSO), and then make a 3-fold serial dilution (10 μl+20 μl DMSO) for 10 doses. Transfer 2 μl diluted compounds to 198 μl medium to get solution of 50 μM concentration at top point for compounds and 5 μM for reference compounds. Then transfer 20 μl cpd solution into assay plate (Duplicate wells). The plate is incubated at 37° C./5% CO2 for 24 h. The final concentration of DMSO in all wells is […]. Reconstitute human M-CSF at 50 μg/ml in sterile water. (Aliquots stored in −80° C.). 1:1000 dilute human M-CSF by fresh medium to 50 ng/ml. After 24 h compounds treatment, transfer 25 μl diluted human M-CSF (50 ng/ml) to cell plate according to the plate map. The final concentration of human M-CSF in all wells is 10 ng/ml.
The plates is incubated at 37° C./5% CO2 for 5 min. In the beginning the appropriate amount of lysis buffer complete (100 μL/well) is prepared and stored on ice. After 5 min human M-CSF stimulation, wash plates once with 300 μL ice cold PBS. Then 100 μl lysis buffer is added to each well. The plate is shacked for 40 min at 4° C. Plates can now be stored at −20° C. After equilibrate the micro-well strips at room temperature, break off the required number of micro-wells. Place the micro-wells in the strip holder. Unused micro-wells must be resealed and stored at 4° C. immediately. Add 90 μl of cell lysate to the appropriate well. Seal with tape and press firmly onto top of micro-wells. Incubate the plate for 2 h at 37° C. Gently remove the tape and wash wells 4 times with 1× Wash Buffer, 200 μl each time for each well. Add 100 μl of reconstituted Detection Antibody (green color) to each well. Seal with tape and incubate the plate at 37° C. for 1 h. Repeat wash procedure. Add 100 μl of reconstituted HRP-Linked secondary antibody to each well. Seal with tape and incubate the plate for 30 min at 37° C. Repeat wash procedure. Add 100 μl of TMB Substrate to each well. Seal with tape and incubate the plate for 10 min at 37° C. or 30 min at 25° C. Calculations and Formulas: The following calculations and formulas are used for data analysis using XL Fit software: The curve fitting was made using the Sigmoidal Dose-Response Model (Fit model, 205).

IC50 (CSF1R) [nM] | Structure (SMILES) | IC50 (CSF1R (M-NFS-60 cells)) [nM]
< 500 | CCC(=O)n1cc(OCC(F)(F)F)c(C(=O)Nc2ccc(Oc3ccnc4cc(OC)c(OC)cc34)cn2)n1 [Compound 20] | < 1000
500 to 1000 | COc1cc2nccc(Oc3ccc(NC(=O)c4nn(CC(C)N)cc4OCC(F)(F)F)nc3)c2cc1OC (stereo not shown) [Compound 63] | 1000 to 10000
< 500 | COc1cc2nccc(Oc3ccc(NC(=O)c4nn(C)cc4OCC(F)(F)F)nc3)c2cc1OC [Compound 33] | < 1000
500 to 1000 | COc1cc2nccc(Oc3ccc(NC(=O)c4nn(C5CCNC5)cc4OCC(F)(F)F)nc3)c2cc1OC (stereo not shown) [Compound 70] | 1000 to 10000
< 500 | COc1cc2nccc(Oc3ccc(NC(=O)c4nn(CC(C)(F)F)cc4OCC(F)(F)F)nc3)c2cc1OC [Compound 64] | 1000 to 10000
< 500 | COc1cc2nccc(Oc3ccc(NC(=O)c4nn(CCO)cc4OCC(F)(F)F)cc3F)c2cc1OC [Compound 51] | < 1000
≥ 1000 | COCCOc1cn(C2CC2)nc1C(=O)Nc1ccc(Oc2ccnc3cc(OC)c(OC)cc23)nn1 [Compound 171] | ≥ 10000
500 to 1000 | CCCn1cc(OCC(F)(F)F)c(C(=O)Nc2ccc(Oc3ccnc4cc(OC)c(OC)cc34)cc2)n1 [Compound 38] | < 1000
< 500 | COc1cc2nccc(Oc3ccc(NC(=O)c4nn(C5CCOC5)cc4OCC(F)(F)F)nc3)c2cc1OC (stereo not shown) [Compound 13] | < 1000
≥ 1000 | COCCn1cc(OCC(F)(F)F)c(C(=O)Nc2ccc(Oc3ccnc4cc(OC)c(OC)cc34)c(F)c2)n1 [Compound 54] | < 1000
< 500 | COc1cc2nccc(Oc3ccc(NC(=O)c4nn(C5CCC5)cc4OCC(F)(F)F)nc3)c2cc1OC [Compound 24] | < 1000
≥ 1000 | COc1cc2nccc(Oc3ccc(NC(=O)c4nn(C5CC5)cc4OCC4CNC4)nn3)c2cc1OC [Compound 172] | ≥ 10000
≥ 1000 | COc1cc2nccc(Oc3ccc(NC(=O)c4nn(C5CCNC5)cc4OCC(F)(F)F)c(F)c3)c2cc1OC (stereo not shown) [Compound 74] | 1000 to 10000
≥ 1000 | COc1cc2nccc(Oc3ccc(NC(=O)c4nn(C5CCCC5)cc4OCC(F)(F)F)cc3F)c2cc1OC [Compound 52] | < 1000
< 500 | COc1cc2nccc(Oc3ccc(NC(=O)c4nn(C(C)C)c(C)c4OCC(F)(F)F)nc3)c2cc1OC [Compound 2] | < 1000
< 500 | CCCn1cc(OCCC(F)(F)F)c(C(=O)Nc2ccc(Oc3ccnc4cc(OC)c(OC)cc34)cn2)n1 [Compound 31] | < 1000
< 500 | COc1cc2nccc(Oc3ccc(NC(=O)c4nn(CC(C)=O)cc4OCC(F)(F)F)nc3)c2cc1OC [Compound 19] | < 1000
< 500 | COc1cc2nccc(Oc3ccc(NC(=O)c4nn(CCNC5CC5)cc4OCC(F)(F)F)nc3)c2cc1OC [Compound 168] | < 1000
< 500 | COc1cc2nccc(Oc3ccc(NC(=O)c4nn(C(C)(C)C)cc4OCC(F)(F)F)nc3)c2cc1OC [Compound 22] | < 1000
≥ 1000 | COc1cc2nccc(Oc3ccc(NC(=O)c4nn(CC(C)O)cc4OCC(F)(F)F)c(F)c3)c2cc1OC (stereo not shown) [Compound 76] | 1000 to 10000
≥ 1000 | CCCn1cc(OCCN(C)C)c(C(=O)Nc2ccc(Oc3ccnc4cc(OC)c(OC)cc34)cn2)n1 [Compound 177] | 1000 to 10000
500 to 1000 | COc1cc2nccc(Oc3ccc(NC(=O)c4nn(C)cc4OCC(F)(F)F)cc3F)c2cc1OC [Compound 50] | 1000 to 10000

IC50 (CSF1R) [nM] | Structure (SMILES) | IC50 (CSF1R (M-NFS-60 cells)) [nM]
< 500 | COc1cc2nccc(Oc3ccc(NC(=O)c4nn(CC5CNC5)cc4OCC(F)(F)F)nc3)c2cc1OC [Compound 73] | 1000 to 10000
< 500 | COc1cc2nccc(Oc3ccc(NC(=O)c4nn(C5COC5)cc4OCC(F)(F)F)nc3)c2cc1OC [Compound 66] | 1000 to 10000
< 500 | COc1cc2nccc(Oc3ccc(NC(=O)c4sc(C5CC5)cc4OCC(F)(F)F)nc3)c2cc1OC [Compound 179] | < 1000
< 500 | COc1cc2nccc(Oc3ccc(NC(=O)c4nn(CCO)cc4OCC(F)(F)F)cc3C)c2cc1OC [Compound 56] | < 1000
< 500 | COc1cc2nccc(Oc3ccc(NC(=O)c4nn(C[C@@H](C)O)cc4OCC(F)(F)F)nc3)c2cc1OC [Compound 29] | < 1000
≥ 1000 | COc1cc2nccc(Oc3ccc(NC(=O)c4nn(C5CC5)cc4OCCC(F)(F)F)nn3)c2cc1OC [Compound 173] | 1000 to 10000
500 to 1000 | COc1cc2nccc(Oc3ccc(NC(=O)c4nn(C5CCCC5)cc4OCC(F)(F)F)cc3)c2cc1OC [Compound 60] | 1000 to 10000
< 500 | COc1cc2nccc(Oc3ccc(NC(=O)c4nn(C5CCCC5)cc4OCC(F)(F)F)nc3)c2cc1OC [Compound 40] | < 1000
< 500 | COc1cc2nccc(Oc3ccc(NC(=O)c4nn(C)cc4OCC(F)(F)F)c(F)c3)c2cc1OC [Compound 45] | 1000 to 10000
< 500 | COc1cc2nccc(Oc3ccc(NC(=O)c4nn(CCCO)cc4OCC(F)(F)F)nc3)c2cc1OC [Compound 18] | < 1000
< 500 | COc1cc2nccc(Oc3ccc(NC(=O)c4nn(CC5CCC5)cc4OCC(F)(F)F)nc3)c2cc1OC [Compound 42] | < 1000
< 500 | COc1cc2nccc(Oc3ccc(NC(=O)c4nn(CCO)cc4OCC(F)(F)F)cc3)c2cc1OC [Compound 59] | < 1000
< 500 | COc1cc2nccc(Oc3ccc(NC(=O)c4nn(CC(C)C)cc4OCC(F)(F)F)nc3)c2cc1OC [Compound 21] | < 1000
< 500 | COc1cc2nccc(Oc3ccc(NC(=O)c4nn(CC5CCCCC5)cc4OCC(F)(F)F)nc3)c2cc1OC [Compound 43] | < 1000
500 to 1000 | COc1cc2nccc(Oc3ccc(NC(=O)c4nn(C5CCCC5)cc4OCC(F)(F)F)c(F)c3)c2cc1OC [Compound 47] | < 1000
500 to 1000 | COc1cc2nccc(Oc3ccc(NC(=O)c4nn(CC(C)C)cc4OCC(F)(F)F)c(F)c3)c2cc1OC [Compound 48] | < 1000
≥ 1000 | COc1cc2nccc(Oc3ccc(NC(=O)c4nn(CC(C)O)cc4OCC4CN(C)C4)nc3)c2cc1OC (stereo not shown) [Compound 174] | ≥ 10000
< 500 | COc1cc2nccc(Oc3ccc(NC(=O)c4cc(C5CC5)cnc4OCC(F)(F)F)nc3)c2cc1OC [Compound 178] | < 1000
< 500 | COc1cc2nccc(Oc3ccc(NC(=O)c4nn(CC5CCN(C)C5)cc4OCC(F)(F)F)nc3)c2cc1OC (stereo not shown) [Compound 169] | < 1000
< 500 | COc1cc2nccc(Oc3ccc(NC(=O)c4nn(CC5CCOC5)cc4OCC(F)(F)F)nc3)c2cc1OC (stereo not shown) [Compound 44] | < 1000
< 500 | COc1cc2nccc(Oc3ccc(NC(=O)c4nn(CC5CC5)cc4OCC(F)(F)F)nc3)c2cc1OC [Compound 41] | < 1000
≥ 1000 | COc1cc2nccc(Oc3ccc(NC(=O)c4nn(C5CCOC5)cc4OCC(F)(F)F)cc3F)c2cc1OC (stereo not shown) [Compound 55] | 1000 to 10000
